Data on 6 molecules can be found in patent US7766979B2, “Phase transformation in molecular solids” (Avantium International B.V., priority 2004, dated 2010).

Series [1] in a line: tribochemical treatment (high-energy grinding) with phase detection by X-ray powder diffractometry. The format is physicochemical. To be noted: for phase transformation achieved by the process (summary statement): Fritsch Pulverisette 7, hardened steel, as a solid. As to the method: The detection of the particular modification/form was conducted with X-ray powder diffractometry: X-ray diffractometer: SToe STADI P transmission diffractometer, CuKα1: 1.54060 Å, linear position-sensitive detector, measurement range 5-40°2Theta, step width 0.01°2Theta, measurement time 960 sec/step.
High-energy mill: Fritsch Pulverisette 7;
Grinding cup: hardened steel, volume 10 ml; […]
Temperature control: no temperature control […]
Amount of substance: 1.0 g

For series [2] the following is noted: cited from earlier work; for phase transformation under mechanical stress (grinding, pressure): conventional grinding or pressure, literature.
The conditions of series [3]: cited from earlier work; for temperature of conversion to the other polymorph: on heating.
The conditions of series [4]: compared with form 1; cited from earlier work.

SMILES strings stand for the structures. Where two headings read alike, the source gives them in different places.

Turning to `CCCNC(=O)NS(=O)(=O)c1ccc(Cl)cc1` [Chlorpropamide form A, Chlorpropamide], the “phase found after tribochemical treatment” value (from here on “phase found”) in series [1] (Experiment 3.1: 1.0 g, 800 rpm, 1 hour) was “partial transformation to form C”. Moreover, the “phase transformation achieved by the process (summary statement)” value (from here on “phase transformation achieved”) in series [1] (listed as form A) is “partly to form C”. Also, the “phase transformation under mechanical stress (grinding, pressure)” value (“phase transformation … (grinding, pressure)” below) in series [2] (listed as form A) is recorded as “detectable phase transformations under none of the mechanical stresses listed”.

`CCCNC(=O)NS(=O)(=O)c1ccc(Cl)cc1` [Chlorpropamide form C, Chlorpropamide]: the “phase found” value in series [1] (Experiment 3.2: 1.0 g, 800 rpm, 15 minutes) is on record as “clearly perceptible incipient transformation to form A”; in series [1] (Experiment 3.3: 1.0 g, 800 rpm, 60 minutes), “transformed fully to form A”. The “phase transformation achieved” value in series [1] (listed as form C) is “fully to form A”. Moreover, the “thermodynamic stability of the phase” value in series [3] (at room temperature (acetazolamide)) is reported as “metastable”. In addition, the “phase transformation … (grinding, pressure)” value in series [2] (listed as form C) is “partial phase transformation to form A”.

On to `CC(=O)Nc1nnc(S(N)(=O)=O)s1` [polymorph 1 of acetazolamide, 5-Acetamido-1,3,4-thiadiazole-2-sulfonamide], for which the “phase transformation … (grinding, pressure)” value in series [2] (listed as polymorph 1) is on record as “not converted back to polymorph 2”. Moreover, in series [2] (storage), the “storage period without conversion back to polymorph 2” value is on record as “over 5 years”.

For the molecule `CC(=O)Nc1nnc(S(N)(=O)=O)s1` [polymorph 2 of acetazolamide, 5-Acetamido-1,3,4-thiadiazole-2-sulfonamide], the “phase found” value in series [1] (Experiment 2.1: 1.0 g, 800 rpm, 1 hour) is on record as “converted virtually fully to polymorph 1”; in series [1] (Experiment 2.2: 1.0 g, 800 rpm, 5 minutes), “attributable to the polymorph 2 used”; in series [1] (Experiment 2.3: 1.0 g, 800 rpm, 30 minutes), “polymorph 1 is isolated”; in series [1] (Experiment 2.4: 1.0 g, 800 rpm, 45 minutes), “polymorph 1 is likewise isolated”; in series [1] (Experiment 2.5: 1.0 g, 400 rpm, 30 minutes), “attributable to the polymorph 2 used”; in series [1] (Experiment 2.6: 1.0 g, 400 rpm, 60 minutes), “no phase transformation is observed”. In series [1], the “phase transformation achieved” value is on record as “virtually full transformation of polymorph 2 to polymorph 1”. Further, in series [3], the “temperature of conversion to the other polymorph” value is 120-148 °C. Moreover, the “phase transformation … (grinding, pressure)” value in series [2] (listed as polymorph 2) was “Nor has the transformation of polymorph 2 to polymorph 1 under mechanical stress been observed”.

Take `Cc1ccnc(NS(=O)(=O)c2ccc(N)cc2)n1` [sulfamerazine form 1, 2-Sulfanilamido-4-methylpyrimidine]: the “phase found” value in series [1] (Example 1.1: 1.0 g, normal atmosphere, 800 rpm, 1 hour, no temperature control) is “Virtually full conversion of form 1 to the desired form 2”; in series [1] (Example 1.2: 1.0 g, normal atmosphere, 800 rpm, 5 minutes) it was “still attributable to form 1”; in series [1] (Example 1.3: 1.0 g, normal atmosphere, 800 rpm, 15 minutes), “still attributable to form 1”; in series [1] (Example 1.4: 1.0 g, normal atmosphere, 800 rpm, 30 min), “all of which are attributable to form 2”; in series [1] (Example 1.5: 10.0 g, 7 balls, 40 ml grinding cup, 800 rpm, 15 minutes) it was “those of form 1”; in series [1] (Example 1.6: 10.0 g, 7 balls, 40 ml grinding cup, 800 rpm, 30 min) it was “all of which are attributable to form 2”. Besides, the “phase found” value in series [1] (Example 1.7: 15.0 g, 2 balls, 40 ml grinding cup, 800 rpm, 120 and 180 min) is listed as “formation of form 2”. Besides, the “phase transformation achieved” value in series [1] is listed as “fully to form 2”. In series [2], the “phase transformation … (grinding, pressure)” value was “neither polymorphic form undergoes a transformation”.

In the case of `Cc1ccnc(NS(=O)(=O)c2ccc(N)cc2)n1` [sulfamerazine form 2, 2-Sulfanilamido-4-methylpyrimidine], the “temperature of conversion to the other polymorph” value in series [3] was “about 170 °C”. Also, in series [4], the hygroscopicity entry is listed as “less hygroscopic” and the “release of the active ingredient” value is “releases the sulfamerazine better”.
